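Dose response: 5 concentrations. Exposure: 48 h. Format: 96-well plates. Endpoint: linear interpolation; highest concentration if not reached. The concentration for full growth arrest is given as TGI.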
Columns and labels:
Assay in all cases: inhibition of tumour cell growth, NCI panel, 48 h
[1] = system: MDA-N
[2] = system: KM12 colon
[3] = system: OVCAR-5 ovarian
[4] = system: SF-268 CNS
[5] = system: RPMI-8226 leukemia
[6] = system: SNB-75 CNS
[7] = system: MDA-MB-231 breast
[8] = system: BT-549 breast
[9] = system: PC-3 prostate
[10] = system: UO-31 renal
[11] = system: U251 CNS
[12] = system: 786-0 renal
[13] = system: MOLT-4 leukemia
[14] = system: UACC-257 melanoma
[15] = system: IGROV1 ovarian
[16] = system: M14 melanoma
[17] = system: HS 578T breast
[18] = system: EKVX NSCLC
[19] = system: T-47D breast
[20] = system: ACHN renal
[21] = system: A549 NSCLC
[22] = system: TK-10 renal
[23] = system: K-562 leukemia
[24] = system: UACC-62 melanoma
[25] = system: OVCAR-3 ovarian
[26] = system: SK-OV-3 ovarian
[27] = system: SF-539 CNS
[28] = system: DU-145 prostate
[29] = system: NCI/ADR-RES ovarian
[30] = system: NCI-H460 lung
[31] = system: HT29 colon
[32] = system: HL-60(TB) leukemia
[33] = system: COLO 205 colon
[34] = system: MDA-MB-435
[35] = system: HCC-2998 colon
[36] = system: NCI-H23 lung
[37] = system: HOP-92 NSCLC
[38] = system: CAKI-1 renal
[39] = system: HCT-116 colon
[40] = system: HOP-62 NSCLC
[41] = system: OVCAR-8 ovarian
[42] = system: SK-MEL-2 melanoma
[43] = system: MCF7 breast
[44] = system: HCT-15 colon
[45] = system: NCI-H226 lung
[46] = system: OVCAR-4 ovarian
[47] = system: LOX IMVI melanoma
[48] = system: CCRF-CEM leukemia
[49] = system: SF-295 CNS
[50] = system: SN12C renal
[51] = system: RXF 393 renal
[52] = system: SW-620 colon
[53] = system: SNB-19 CNS
[54] = system: NCI-H522 lung
[55] = system: SK-MEL-5 melanoma
[56] = system: SR leukemia
[57] = system: SK-MEL-28 melanoma
[58] = system: MALME-3M melanoma

Structure (SMILES): CCCCCCCCNC(=O)C1=C(C)NC(C)=C(C(=O)NCCCCCCCC)C1
- TGI [1]: > 100 µM
- TGI [2]: > 100 µM
- TGI [3]: > 100 µM
- TGI [4]: > 100 µM
- TGI [5]: > 100 µM
- TGI [6]: > 100 µM
- TGI [7]: > 100 µM
- TGI [8]: > 100 µM
- TGI [9]: > 100 µM
- TGI [10]: > 100 µM
- TGI [11]: > 100 µM
- TGI [12]: > 100 µM
- TGI [13]: > 100 µM
- TGI [14]: > 100 µM
- TGI [15]: > 100 µM
- TGI [16]: > 100 µM
- TGI [17]: > 100 µM
- TGI [18]: > 100 µM
- TGI [19]: > 100 µM
- TGI [20]: > 100 µM
- TGI [21]: > 100 µM
- TGI [22]: > 100 µM
- TGI [23]: > 100 µM
- TGI [24]: > 100 µM
- TGI [25]: > 100 µM
- TGI [26]: > 100 µM
- TGI [27]: > 100 µM
- TGI [28]: > 100 µM
- TGI [29]: > 100 µM
- TGI [30]: > 100 µM
- TGI [31]: > 100 µM
- TGI [32]: > 100 µM
- TGI [33]: > 100 µM
- TGI [34]: > 100 µM
- TGI [35]: > 100 µM
- TGI [36]: > 100 µM
- TGI [37]: > 100 µM
- TGI [38]: > 100 µM
- TGI [39]: > 100 µM
- TGI [40]: > 100 µM
- TGI [41]: > 100 µM
- TGI [42]: > 100 µM
- TGI [43]: > 100 µM
- TGI [44]: > 100 µM
- TGI [45]: > 100 µM
- TGI [46]: > 100 µM
- TGI [47]: > 100 µM
- TGI [48]: > 100 µM
- TGI [49]: > 100 µM
- TGI [50]: > 100 µM
- TGI [51]: > 100 µM
- TGI [52]: > 100 µM
- TGI [53]: > 100 µM
- TGI [54]: > 100 µM
- TGI [55]: > 100 µM

Structure (SMILES): COc1ccc(NS(=O)c2ccc(Cl)cc2)cc1 (stereo unspecified)
- TGI [1]: > 100 µM
- TGI [2]: 23.8 µM
- TGI [4]: 39.2 µM
- TGI [5]: > 100 µM
- TGI [7]: > 100 µM
- TGI [8]: 63.9 µM
- TGI [10]: 42.4 µM
- TGI [11]: 54.2 µM
- TGI [12]: > 100 µM
- TGI [13]: > 100 µM
- TGI [14]: > 100 µM
- TGI [15]: > 100 µM
- TGI [16]: > 100 µM
- TGI [17]: > 100 µM
- TGI [18]: > 100 µM
- TGI [19]: 41.2 µM
- TGI [20]: > 100 µM
- TGI [21]: > 100 µM
- TGI [22]: > 100 µM
- TGI [23]: > 100 µM
- TGI [24]: 39.9 µM
- TGI [25]: > 100 µM
- TGI [27]: 30 µM
- TGI [28]: > 100 µM
- TGI [29]: > 100 µM
- TGI [30]: > 100 µM
- TGI [31]: > 100 µM
- TGI [32]: > 100 µM
- TGI [33]: > 100 µM
- TGI [34]: 76.1 µM
- TGI [35]: > 100 µM
- TGI [36]: > 100 µM
- TGI [39]: > 100 µM
- TGI [40]: > 100 µM
- TGI [41]: > 100 µM
- TGI [56]: > 100 µM
- TGI [57]: > 100 µM
- TGI [42]: 70 µM
- TGI [43]: > 100 µM
- TGI [44]: > 100 µM
- TGI [45]: 81.1 µM
- TGI [46]: > 100 µM
- TGI [58]: 60 µM
- TGI [47]: > 100 µM
- TGI [48]: > 100 µM
- TGI [49]: > 100 µM
- TGI [50]: > 100 µM
- TGI [52]: > 100 µM
- TGI [53]: > 100 µM
- TGI [54]: > 100 µM
- TGI [55]: > 100 µM
